Reference: US11530181B2, “IL-6 inhibitors and methods of treatment” (University of Florida Research Foundation, Incorporated, priority 2018, dated 2022)
Each block holds one molecule with its values, some of them ahead of it.

Legend:
[1] = system: BxPC-3 pancreatic cancer cell line; test: MTT cell viability assay, BxPC-3; assay type: cell-based, human; conditions: for inhibitory effect compared to parent compound LLM4: BxPC-3, 25 μM, 48 hours; for IC50: Homo sapiens, BxPC-3, Table 7
Description: (§1) Human breast cancer cell lines MCF7, MDA-MB-231 and SUM159 were maintained in Dulbecco's modified Eagle medium (DMEM). Human pancreatic cancer cell line BxPC-3 was maintained in RPMI 1640 medium. Human pancreatic cancer cell line Capan-1 was maintained in Iscove's Modified Dulbecco's Medium (IMEM). All media were supplemented with 10% FBS and 1% penicillin/streptomycin, and cells were incubated in a humidified 37° C. incubator with 5% CO2. PE/CA-PJ49 cell line was purchased from external sources and maintained according to manufacturer's protocol.
(§2) Cell viability was evaluated by using the MTT assay in triple replicates in one experiment and repeated for three times. Cancer cells were seeded in 96-well plates at a density of 3,000 cells per well. The cells were incubated at 37° C. for a period of 24 hours. Escalating concentrations of IL-6/gp130 inhibitors were added in triplicate to the plates in the presence of 10% FBS. After incubation for 48 or 72 hours, a stock solution of MTT (0.5 mg/ml) was then added to each well containing the treated cells, followed by incubation at 37° C. for 3 h. After removal of medium, the MTT dye was dissolved with spectrophotometric grade DMSO and the absorbance was read at 570 nm. The IC50 value is determined by interpolation based on the absorbance value halfway between positive and negative controls. In the experiment of LLM4 showing higher efficacy in cancer cells with higher levels of IL-6, instead of using medium with 10% FBS, DMEM with 0% FBS was used in order to eliminate the influence of trace amounts of growth factors and cytokines in FBS.

[2] = system: multiple myeloma cell line U266; test: Cell viability assay, U266; assay type: cell-based, human
Description: as §2
It was reported in multiple myeloma cell line U266 that IL-6 is also elevated and of great importance for cancer progression [Jernberg W, Pettersson M, Carlsson M, et al. Increase in interleukin 6 (IL-6) and IL-6 receptor expression in a human multiple myeloma cell line, U-266, during long-term in vitro culture and the development of a possible autocrine IL-6 loop 1. Leukemia. 1992, 4, 310-318]. These novel IL-6/gp130 inhibitors were tested in U266 cells at a concentration of 25 μM for an incubation time of 48 and 72 hours. MDL16 and LLM4 were used as control compounds.

[3] = system: IL-6 induced STAT3 phosphorylation; test: Western blot, IL-6 induced STAT3 phosphorylation in MCF7; assay type: cell-based, human; conditions: MCF7, 1-4 μM, 5 h, IL-6 50 ng/ml
Description: Cells were harvested and lysed in cold radioimmunoprecipitation assay (RIPA) lysis buffer containing proteasome inhibitor cocktail and phosphatase inhibitor cocktail. The protein concentrations were determined using the BCA Protein Assay kit. After adding the loading buffer and boiling at 95° C. for 10 minutes, equivalent amounts of proteins were loaded on and separated by SDS-PAGE, and then were transferred to PVDF membranes. Membranes were probed with primary antibodies (1:1000) against phospho-STAT3 (Tyr705), STAT3, phospho-STAT1 (Tyr701), STAT1, phospho-STAT6 (Tyr 641), STAT6, and GAPDH, respectively, and horseradish peroxidase (HRP)-conjugated secondary antibody (1:10000) (Cell Signaling Technology, Beverly, Mass.). Membranes were analyzed using Enhanced Chemiluminescence Plus reagents and either scanned with the Storm Scanner (Amersham Pharmacia Biotech, Inc., Piscataway, N.J.) or imaged with ChemiDoc MP imaging system (Bio-Rad, Hercules, Calif.). For cytokine induction of STAT3 phosphorylation, MCF-7 breast cancer cells were seeded in 10 cm plates (1 million cells per plate) and allowed to adhere overnight followed by serum-starvation. […] After designated hours, LLM-418 treated and untreated cells were stimulated by IL-6, LIF, and OSM (50 ng/mL). The cells were harvested after 30 minutes and analyzed by Western blot.
MCF7 breast cancer cells were seeded in 10 cm plates (1 million cells per plate) and allowed to adhere overnight. The following day, the cells were serum-starved. The cells were then left untreated or treated with LLM4 (5-20 μM). After designated hours, the LLM4 treated and untreated cells were stimulated by IL-6, LIF, OSM, CNTF, CT-1, IL-11, IL-4 or INF-γ (50 ng/ml). The cells were harvested after 30 minutes and analyzed by western blotting.

gp130-D1-D3 = target: T1, gp130-D1-D3 (Homo sapiens, UniProt P40189); test: SPR direct binding to immobilized gp130-D1-D3 (CM5 chip); conditions: for Kd: SPR, gp130-D1-D3, linear regression at low concentrations, 25% Rmax; for ΔGexp: experimental binding energy from SPR KD
T1 construct: residues 1-301, the numbering system is based on PDB 3L5H, which is the mature form of gp130; tandem TFH purification tag (includes FLAG, as purified on anti-FLAG M2 agarose) (C); made in house; host or cells: Hi5 insect cells (baculovirus; virus generated in sf9)
T1 sequence (P40189 23-323): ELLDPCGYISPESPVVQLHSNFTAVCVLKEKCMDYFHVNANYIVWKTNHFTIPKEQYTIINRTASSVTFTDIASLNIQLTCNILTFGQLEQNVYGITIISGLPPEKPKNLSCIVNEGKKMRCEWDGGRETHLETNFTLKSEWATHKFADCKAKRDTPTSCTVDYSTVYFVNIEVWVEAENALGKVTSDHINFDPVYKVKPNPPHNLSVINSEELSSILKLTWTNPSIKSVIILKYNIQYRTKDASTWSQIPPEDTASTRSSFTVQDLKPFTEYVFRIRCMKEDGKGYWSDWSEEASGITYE

[4] = system: SUM159 breast cancer cell line; test: MTT cell viability assay, SUM159; assay type: cell-based, human; conditions: for inhibitory effect compared to parent compound LLM4: SUM159, 25 μM, 48 hours
Description: as §1
as §2, with “controls.” for “controls. In the experiment of LLM4 showing higher efficacy in cancer cells with higher levels of IL-6, instead of using medium with 10% FBS, DMEM with 0% FBS was used in order to eliminate the influence of trace amounts of growth factors and cytokines in FBS.”

PE/CA-PJ49 cell line = test: Inhibitory activity in PTPRD mutant cell line PE/CA-PJ49; assay type: cell-based; conditions: PE/CA-PJ49, 48 h
Description: as §1, §2
Protein tyrosine […] receptor type D (PTPRD) is reported to serve as a tumor suppressor in various human cancers [Peyser et. al, PLoS One (2015) 10(8)]. PTPRD mutation is also known to be associated with increased STAT3 expression [Peyser et. al, PLoS One (2015) 10(8)]. Table 8 captures the inhibitory activities of various compounds in the PTPRD mutant cell line, PE/CA-PJ49.

[5] = system: MDA-MB-231 breast cancer cell line; test: MTT cell viability assay, MDA-MB-231; assay type: cell-based, human; conditions: MDA-MB-231 (medium IL-6), 48 h, 0% FBS medium
Description: as §1
as §2, with “Escalating concentrations of IL-6/gp130 inhibitors were added in triplicate to the plates in the presence of 10% FBS.” left out, “In the experiment of LLM4 showing higher efficacy in cancer cells with higher levels of IL-6, instead of using medium with 10% FBS, DMEM with 0% FBS was used in order to eliminate the influence of trace amounts of growth factors and cytokines in FBS.” left out

[6] = system: SUM159 breast cancer cell line; test: MTT cell viability assay, SUM159; assay type: cell-based, human; conditions: SUM159 (high IL-6), 48 h, 0% FBS medium
[7] = system: MCF7 breast cancer cell line; test: MTT cell viability assay, MCF7; assay type: cell-based, human; conditions: MCF7 (low IL-6), 48 h, 0% FBS medium
Description: as §1
as §2, with “Escalating concentrations of IL-6/gp130 inhibitors were added in triplicate to the plates in the presence of 10% FBS.” left out, “In the experiment of LLM4 showing higher efficacy in cancer cells with higher levels of IL-6, instead of using medium with 10% FBS, DMEM with 0% FBS was used in order to eliminate the influence of trace amounts of growth factors and cytokines in FBS.” left out

[8] = target: Extracellular Domain of gp130 (Homo sapiens, UniProt P40189); conditions: literature value; read-out: reported binding affinity; cited from earlier work
[9] = SUM159 human breast cancer cell line, MTT

Sequence of Extracellular Domain of gp130 (P40189 23-619 limits assumed): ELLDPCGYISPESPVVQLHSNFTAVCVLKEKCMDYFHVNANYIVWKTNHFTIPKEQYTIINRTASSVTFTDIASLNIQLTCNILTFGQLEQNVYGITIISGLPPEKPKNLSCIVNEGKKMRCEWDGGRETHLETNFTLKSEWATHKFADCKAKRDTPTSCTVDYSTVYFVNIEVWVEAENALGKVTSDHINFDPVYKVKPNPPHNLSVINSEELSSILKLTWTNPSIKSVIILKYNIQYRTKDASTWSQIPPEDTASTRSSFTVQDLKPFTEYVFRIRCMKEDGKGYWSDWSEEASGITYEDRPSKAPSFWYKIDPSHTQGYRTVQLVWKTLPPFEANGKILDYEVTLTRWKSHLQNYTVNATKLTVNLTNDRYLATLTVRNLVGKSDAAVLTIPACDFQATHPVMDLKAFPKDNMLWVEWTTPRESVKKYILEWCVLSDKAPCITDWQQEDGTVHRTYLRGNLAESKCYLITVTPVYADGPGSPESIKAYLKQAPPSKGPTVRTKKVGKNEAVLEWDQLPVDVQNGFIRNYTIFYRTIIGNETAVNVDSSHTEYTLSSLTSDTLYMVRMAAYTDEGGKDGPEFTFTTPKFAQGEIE

IC50 [1]: 13 µM
IC50 ([2]; Homo sapiens, U-266, U266, 72 h): 5.4 µM
Kd (gp130-D1-D3): 21.6 µM
ΔGexp (gp130-D1-D3): -6.36 kcal/mol
IC50 ([4]; Homo sapiens, SUM159, SUM159, Table 7): 14 µM
SMILES: O=C(Nc1cccc(-c2ccn[nH]2)c1)c1ccc(OCCCN2CCCCC2)cc1 [LLM41, N-(3-(1H-pyrazol-5-yl)phenyl)-4-(3-(piperidin-1-yl)propoxy)benzamide]
inhibitory effect compared to parent compound LLM4 [1]: comparable or slightly better at inhibition
inhibitory effect compared to parent compound LLM4 ([2]; U266, 25 μM, 48 and 72 hours): greater inhibitory effects
inhibition of IL-6 induced STAT3 phosphorylation [3]: inhibited STAT3 phosphorylation stimulated by IL-6 in MCF7 cells in a dose dependent manner
inhibitory effect compared to parent compound LLM4 [4]: comparable or slightly better at inhibition

SMILES: CN(C)C(=O)Oc1cccc2c1C(=O)c1cccc(S(N)(=O)=O)c1C2=O [LLL12B]
IC50 (PE/CA-PJ49 cell line): 0.0159 ± 0.00371 µM

SMILES: O=C(Nc1cc(F)ccc1-n1cccc1)c1ccc(OCCc2ccccc2)cc1 [LLM5, N-(5-fluoro-2-(1H-pyrrol-1-yl)phenyl)-4-phenethoxybenzamide]
IC50 [4, 9]: 64.4 ± 6.9 µM

SMILES: O=C(Nc1ccccc1-c1ccn[nH]1)c1ccc(OCCCN2CCCCC2)cc1 [LLM417, N-(2-(1H-pyrazol-5-yl)phenyl)-4-(3-(piperidin-1-yl)propoxy)benzamide]
inhibitory effect compared to parent compound LLM4 [1]: comparable or slightly better at inhibition
inhibitory effect compared to parent compound LLM4 [4]: comparable or slightly better at inhibition

SMILES: O=C(Nc1cccc(-c2ccn[nH]2)c1)c1cccc(OCCN2CCCCC2)c1 [LLM46, N-(3-(1H-pyrazol-5-yl)phenyl)-3-(2-(piperidin-1-yl)ethoxy)benzamide]
inhibitory effect compared to parent compound LLM4 [1]: comparable or slightly better at inhibition
inhibitory effect compared to parent compound LLM4 [4]: comparable or slightly better at inhibition

IC50 [5]: 1.22 µM
IC50 [6]: 1.08 µM
IC50 [7]: 4.7 µM
IC50 (PE/CA-PJ49 cell line): 0.691 ± 0.064 µM
SMILES: O=C(NNc1nc2cc(F)ccc2n2cccc12)c1cnccn1 [SC144, reference compound]

SMILES: O=C(Nc1cc(F)ccc1-n1cccc1)c1ccc(OCCN2CCCCC2)cc1 [LLM3, N-(5-fluoro-2-(1H-pyrrol-1-yl)phenyl)-4-(2-(piperidin-1-yl)ethoxy)benzamide]
IC50 [4, 9]: 31.4 ± 4.7 µM

IC50 [1]: 1.8 µM
IC50 ([4]; Homo sapiens, SUM159, Table 7): 4.6 µM
SMILES: Cc1c(-c2ccc(O)cc2)n(Cc2ccc(OCCN3CCCCCC3)cc2)c2ccc(O)cc12 [Bazedoxifene, reference compound]

IC50 (PE/CA-PJ49 cell line): 0.019 ± 0.00283 µM
SMILES: NS(=O)(=O)c1cccc2c1C(=O)c1cccc(O)c1C2=O [LLL12]

Kd (gp130-D1-D3): 330 µM
ΔGexp (gp130-D1-D3): -4.75 kcal/mol
SMILES: CCCCC1=C(C)C(=O)[C@](C)(CN2c3ccccc3[C@]3(O)CCOC23)C1=O (stereo partly drawn) [MDL-A, Madindoline A, reference compound]
Kd [8]: 288 µM

SMILES: O=C(Nc1cc(F)ccc1-n1cccc1)c1ccc(OCCCCc2ccccc2)cc1 [LLM7, N-(5-fluoro-2-(1H-pyrrol-1-yl)phenyl)-4-(4-phenylbutoxy)benzamide]
IC50 ([4]; Homo sapiens, SUM159, SUM159 human breast cancer cell line, MTT): 58.7 ± 6.3 µM
